Test results as given in patent US20150065442A1, “REDUCIBLE SELF-ASSEMBLED MICELLE DRUG DELIVERY SYSTEMS” (University of Manitoba, priority 2012, published 2015).

Assays:
[1] = test system: HepG2 cells; assay: MTT cytotoxicity (cell inhibition) assay; assay type: cell-based, human
Description: Hepatoma cells (HepG2) were used to investigate cell inhibition of DOX-loaded nanoparticles. HepG2 cells were obtained from the American Type Culture Collection and cultured with Dulbecco's Modified Eagle's Medium (DMEM, GIBCO) supplemented with 10% fetal bovine serum (FBS, GIBCO), 1.0×10^5 U/l penicillin (Sigma) and 100 mg/l streptomycin (Sigma) at 37° C. in 5% CO2.
The cytotoxicity of the copolymeric micelles loaded with DOX was determined using the MTT Cell Proliferation Kit (Biotium Inc., Hayward, Calif., USA). HepG2 cells were seeded into a 96-well tissue culture plate at a density of 8,000 cells per well and were incubated at 37° C. in 5% CO2. The growth medium was replaced with fresh DMEM after 24 h. Then the DOX-loaded PAE polymeric micelle solution and controls (free DOX and blank micelle solutions) were added into wells (six wells per sample). After 48 h of incubation, 10 μL MTT solution was added to each well and incubation continued for another 4 h. […] The absorbance of each well was measured using an ELISA plate reader at a test wavelength of 570 nm and a reference wavelength of 630 nm. The cell inhibition of samples was calculated as: […]
where Isample and Icontrol represent the intensity determined for cells treated with different samples and for control cells (untreated), respectively.

[2] = test system: MCF-7 human breast cancer cells; assay: Cellular uptake of DOX by confocal laser scanning microscopy; assay type: cell-based
Description: Confocal laser scanning microscopy (CLSM) was employed to examine the cellular uptake of DOX by incubating MCF-7 human breast cancer cells with free DOX or DOX-loaded reducible self-assembled rPAE micelles or DOX-loaded non-reducible self-assembled nPAE micelles for 15 min and 2 h. First, the MCF-7 cells were seeded in 10-cm culture dishes at a density of 2×10^5 cells/dish, overlaid with cover slips, and cultured for 24 h. Then, the cells were exposed to DOX-loaded micelles. After the predetermined incubation times, the cover slips were removed and washed with cold PBS three times after which, the cells were fixed by 4% paraformaldehyde in PBS at room temperature for 15 min. After fixation, the cells were permeabilized by 0.1% Triton X-100 in PBS for 10 min and then rinsed with PBS three times. The cells were incubated in 10 uM BODIPY® FL phallacidin/1% (w/v) BSA solution for 20 min and then rinsed with PBS three times. The cells were then incubated in 10 μM Topro-3 for 20 min and then rinsed with PBS three times. The cover slips were set onto microscope slides and examined by CLSM.

[3] = test system: hepatocellular carcinomatous HepG2 cells; assay: as above; assay type: cell-based, human
Description: Confocal laser scanning microscopy (CLSM) was employed to examine the cellular uptake of DOX by incubating hepatocellular carcinomatous HepG2 cells with free DOX or the DOX-loaded micelles for 15 min, 2 h or 24 h. First, the HepG2 cells were seeded in culture dishes at a density of 2×10^5 cells/dish, overlaid with cover slips, and cultured for 24 h. Then, the cells were exposed to DOX-loaded micelles. After predetermined incubation times, the cover slips were removed and was washed with cold PBS three times after which, the cells were fixed by 4% paraformaldehyde in PBS at room temperature for 15 min. After fixation, the cells were permeabilized by 0.1% Triton X-100 in PBS for 10 min and then rinsed with PBS three times. The cells were incubated in 10 uM BODIPY® FL phallacidin/1% (w/v) BSA solution for 20 min and then rinsed with PBS three times (BODIPY is a registered trademark of Molecular Probes Inc., Eugene, Oreg., USA). The cells were then incubated in 10 μM Topro-3 for 20 min and then rinsed with PBS three times. The cover slips were set onto microscope slides and examined by CLSM.

COc1cccc2c1C(=O)c1c(O)c3c(c(O)c1C2=O)C[C@@](O)(C(=O)CO)C[C@@H]3O[C@H]1C[C@H](N)[C@H](O)[C@H](C)O1 [free DOX, doxorubicin]
Cytotoxicity, dose dependence [1]: increases with increasing dose
Intracellular DOX fluorescence ([2]; MCF-7, 15 min of incubation): fluorescing DOX molecules were observed intracellularly
Intracellular DOX fluorescence ([2]; MCF-7, 2 hr of incubation): accumulations of DOX molecules around the nuclei
Intracellular distribution of DOX fluorescence ([3]; HepG2, 15-min incubation): evenly distributed in cell cytoplasm and the nuclei
Intracellular distribution of DOX fluorescence ([3]; HepG2, 2 h exposure): DOX fluorescence accumulation was detected in and around the nuclei
Cell morphology after exposure ([3]; HepG2, 24 h exposure): nucleus became distinctively swollen and the cytoplasm shrank
Intracellular distribution of DOX fluorescence ([3]; HepG2, 24 h exposure): most of DOX fluorescence was distributed into the nucleus
